These results are taken from PMC6508934, “Structural basis for mammalian nucleotide sugar transport” (eLife, 2019).

Numbering of substitutions follows the chain as printed. Several values for one entry are separate records, joined by “and”; a condition that tells them apart may be missing. Equal values may be shown once.

The target of data set [1] is T1, mCST∆C (Mus musculus, UniProt Q61420).
T1 construct: modifying the full-length construct using site-directed mutagenesis to remove the last 15 residues (322-336); made in house; host or cells: Pichia pastoris
T1 sequence (Q61420 1-321): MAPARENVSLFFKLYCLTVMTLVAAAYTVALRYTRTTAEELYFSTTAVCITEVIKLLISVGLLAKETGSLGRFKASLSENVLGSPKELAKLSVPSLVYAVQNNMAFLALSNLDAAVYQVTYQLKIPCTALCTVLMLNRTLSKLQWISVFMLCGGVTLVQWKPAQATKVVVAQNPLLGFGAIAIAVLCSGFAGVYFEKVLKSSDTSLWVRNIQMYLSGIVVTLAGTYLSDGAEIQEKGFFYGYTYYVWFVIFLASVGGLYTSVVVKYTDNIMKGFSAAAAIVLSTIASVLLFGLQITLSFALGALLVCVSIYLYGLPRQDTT
The experiment in a line: Scintillation proximity binding assay (SPA), displacement of 30 nM [3H]CMP. The conditions noted are these: full SPA titration against 30 nM [3H]CMP. As to the method:
Figure 1. Functional properties of mCST. (A) Purified, detergent-solubilized mCST was bound to SPA beads and the indicated compound was titrated against 30 nM [^3H]CMP to determine its affinity. Solid symbols denote titrations done with mCST and the open symbols are for mCST∆C. (B) Time course of 30 µM CMP-Sia uptake for purified mCST reconstituted into lipid vesicles with (black) or without (red) 300 µM CMP inside the vesicles. […] (C) The initial velocity of CMP-Sia uptake for either mCST (solid circles) or mCST∆C (open circles) reconstituted into CMP-filled vesicles is plotted as a function of substrate concentration to determine the Km and Vmax for transport. In all panels, the symbols show the mean ± standard error of the mean (SEM) for n = 2, except for the CMP titrations in (A), and the titration for mCST in (C) where n = 4. Figure 1—figure supplement 1. Description of SLC35 proteins. (A) Diagram of the nucleotide-sugar transporter (NST) transport cycle. Nucleotide sugars are first synthesized in the cytoplasm (or nucleus for CMP-Sia). They are then transported into the Golgi lumen by NSTs (blue box). A large family of glycosyltransferase enzymes transfers the sugar to a glycan acceptor, leaving behind the nucleotide monophosphate (NMP), which is then transported back to the cytoplasm by the NST. (B) A list of proteins in the SLC35 family with a known function and the associated nucleotide sugar(s) that they transport. SLC35B2 and SLC35B3 are listed for completeness even though they transport PAPS, the substrate used in sulfonation reactions inside the Golgi. In mammals, mannose (Man) is only present in the oligosaccharide precursor that is synthesized in the cytoplasm and then transported across the ER membrane, by a family of transporters distinct from NSTs, before being added to nascent polypeptides to form the base for N-linked glycans. […] (C) The structural formulas of the nucleotide phosphate (left) and sugar (right) moieties of nucleotide sugars are shown. The ‘‘~” symbol indicates the bond that links the two moieties. […]
(In a scintillation proximity assay essentially only radioactivity close to the scintillant gives light.)

Data set [2] deals with T2, mCST (Mus musculus, UniProt Q61420).
T2 sequence (Q61420 1-336): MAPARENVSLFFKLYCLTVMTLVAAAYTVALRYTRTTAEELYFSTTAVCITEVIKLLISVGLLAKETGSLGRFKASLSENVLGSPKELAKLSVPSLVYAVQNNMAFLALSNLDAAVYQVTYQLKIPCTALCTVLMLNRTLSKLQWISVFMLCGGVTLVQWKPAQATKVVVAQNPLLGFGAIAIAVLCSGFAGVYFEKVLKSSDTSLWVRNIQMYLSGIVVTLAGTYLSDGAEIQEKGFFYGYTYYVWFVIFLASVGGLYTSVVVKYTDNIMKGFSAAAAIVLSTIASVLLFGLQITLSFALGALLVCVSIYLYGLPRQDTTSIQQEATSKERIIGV
The data set is described as above. The arrangement: Full-length mCST cDNA was synthesized (Bio Basic) and subcloned into the Pichia pastoris expression vector pPICZ; made in house; host or cells: Pichia pastoris. The procedure:
Figure 1. Functional properties of mCST. (A) Purified, detergent-solubilized mCST was bound to SPA beads and the indicated compound was titrated against 30 nM [^3H]CMP to determine its affinity. Solid symbols denote titrations done with mCST and the open symbols are for mCST∆C. (B) Time course of 30 µM CMP-Sia uptake for purified mCST reconstituted into lipid vesicles with (black) or without (red) 300 µM CMP inside the vesicles. […] (C) The initial velocity of CMP-Sia uptake for either mCST (solid circles) or mCST∆C (open circles) reconstituted into CMP-filled vesicles is plotted as a function of substrate concentration to determine the Km and Vmax for transport. In all panels, the symbols show the mean ± standard error of the mean (SEM) for n = 2, except for the CMP titrations in (A), and the titration for mCST in (C) where n = 4. Figure 1—figure supplement 1. Description of SLC35 proteins. (A) Diagram of the nucleotide-sugar transporter (NST) transport cycle. Nucleotide sugars are first synthesized in the cytoplasm (or nucleus for CMP-Sia). They are then transported into the Golgi lumen by NSTs (blue box). A large family of glycosyltransferase enzymes transfers the sugar to a glycan acceptor, leaving behind the nucleotide monophosphate (NMP), which is then transported back to the cytoplasm by the NST. (B) A list of proteins in the SLC35 family with a known function and the associated nucleotide sugar(s) that they transport. SLC35B2 and SLC35B3 are listed for completeness even though they transport PAPS, the substrate used in sulfonation reactions inside the Golgi. In mammals, mannose (Man) is only present in the oligosaccharide precursor that is synthesized in the cytoplasm and then transported across the ER membrane, by a family of transporters distinct from NSTs, before being added to nascent polypeptides to form the base for N-linked glycans. […] (C) The structural formulas of the nucleotide phosphate (left) and sugar (right) moieties of nucleotide sugars are shown. The ‘‘~” symbol indicates the bond that links the two moieties. In mammals, two types of sialic acid may be transported into the Golgi: N-acetylneuraminic acid (Neu5Ac) or N-glycolylneuraminic acid (Neu5Gc). The ring atoms for the nucleobases and Neu5Ac and Gal are labeled. [drawing 1] Figure 1—figure supplement 2. Sequence alignment of mCST with other SLC35 and DMT proteins. The two letter prefix for each sequence name indicates the species as follows: mm: Mus musculus; hs: Homo sapiens; sc: Saccharomyces cerevisiae; sn: Starkeya novella; gs: Galdieria sulphuraria. […] The labeled yellow bars under the sequences indicate the extent of each TM. The interfacial alpha helix (IH) connecting TMs 2 and 3 is also indicated. [drawing 2] Figure 1—figure supplement 3.

Data set [3] deals with CST. The conditions noted are these: cited from earlier work.
The target in data set [4] is T3, mCST (W160L) (Mus musculus, UniProt Q61420, W160L).
T3 sequence (Q61420 1-336 W160L): T2 sequence (Q61420 1-336) with W160L
The experiment in a line: Intrinsic tryptophan fluorescence quenching assay.

Data set [5] has as its target T4, mCST (W247L) (Mus musculus, UniProt Q61420, W247L).
T4 sequence (Q61420 1-336 W247L): T2 sequence (Q61420 1-336) with W247L
The experiment in a line: Intrinsic tryptophan fluorescence quenching assay.

For data set [6], the target named is T4, mCST (W247L). The experiment in a line: SPA two-point CMP binding.
Data set [7] has as its target T5, mCST (W145L) (Mus musculus, UniProt Q61420, W145L).
T5 sequence (Q61420 1-336 W145L): T2 sequence (Q61420 1-336) with W145L
The experiment in a line: Intrinsic tryptophan fluorescence quenching assay.

Data set [8] concerns the target T3, mCST (W160L). The experiment in a line: SPA two-point CMP binding.
Data set [9] deals with T6, mCST (W207F) (Mus musculus, UniProt Q61420, W207F).
T6 sequence (Q61420 1-336 W207F): T2 sequence (Q61420 1-336) with W207F
The experiment in a line: SPA two-point CMP binding.

In data set [10] the target is T5, mCST (W145L). The experiment in a line: SPA two-point CMP binding.
The target in data set [11] is T1, mCST∆C. The experiment in a line: Intrinsic tryptophan fluorescence quenching assay. The format is binding. Conditions: fit of tryptophan fluorescence quenching, read-out: Kd (Trp-FL).
In data set [12] the test system is mCST Trp207 mutants. The experiment in a line: Intrinsic tryptophan fluorescence quenching assay. Conditions: W207L and W207F mutants.
For data set [13] the following is noted: no reference given; cited from earlier work.
The nature of data set [14]: HPLC analysis of CMP-Sia hydrolysis in aqueous buffer. The conditions noted are these: AnP-treated CMP-Sia, AnP removed, pH 7.5 buffer, room temperature. Format: physicochemical.
Data set [15] has as its target T7, mCST (W207L) (Mus musculus, UniProt Q61420, W207L).
T7 sequence (Q61420 1-336 W207L): T2 sequence (Q61420 1-336) with W207L
The experiment in a line: SPA two-point CMP binding.

Data set [16] has as its target T2, mCST. The experiment in a line: Intrinsic tryptophan fluorescence quenching assay.
The test system of data set [17] is UDP-GlcNAc transporter. Details: method as in Waldman and Rudnick, 1990. The conditions noted are these: monoanionic UMP compared to dianionic UMP; ref Waldman and Rudnick, 1990; cited from earlier work.

In data set [1], `Nc1nc2c(ncn2[C@@H]2O[C@H](COP(=O)(O)O)[C@@H](O)[C@H]2O)c(=O)[nH]1` [GMP, Guanosine 5′-monophosphate] had a Kd of 5380 ± 1150 µM.
Consider `CC(=O)N[C@H]1[C@H]([C@H](O)[C@H](O)CO)OC(O)(C(=O)O)C[C@@H]1O` (stereo partly drawn) [Sia, sialic acid], for which the “Binding to mCST (in words)” value in [2] (SPA titration, Figure 1A) is reported as “does not bind mCST”. For the same compound, in data set [3] (ref Carey et al., 1980, Perez and Hirschberg, 1987), the “Competitive inhibition of CMP-Sia transport (in words)” value was “does not competitively inhibit CMP-Sia transport”.
`Nc1ccn([C@@H]2O[C@H](COP(=O)(O)O)[C@@H](O)[C@H]2O)c(=O)n1` [CMP, Cytidine 5'-monophosphate]: the Kd was 11.9 ± 2.4 µM in data set [4]; 7.4 ± 2.6 µM in data set [5]; 2.4 ± 1.5 µM in [6]; 3.3 ± 1 µM in [7]; 1.6 ± 0.4 µM in data set [8]; 3.8 ± 1.5 µM in data set [9]. Further, the Kd in [10] was 0.8 ± 0.3 µM; in [2] (crude estimation from two-point SPA data (30 nM [3H]CMP ± 5 µM unlabeled CMP), mCST, read-out: Kd (SPA 2-point)), 5.5 ± 1.6 µM; in [2] (full SPA titration against 30 nM [3H]CMP, purified detergent-solubilized mCST, read-out: Kd (SPA titration)), 6.3 ± 1.2 µM; in data set [11], 11.1 ± 2.9 µM; in [1], 1.8 ± 0.4 µM; in data set [15], 1.5 ± 0.4 µM. Moreover, the Kd in data set [16] was determined as 2.9 ± 1.1 µM. Also, in [2] (CMP versus CMP-Sia, Figure 1A), the “Fold higher affinity of CMP towards mCST than CMP-Sia” value was ~ 100 fold. Moreover, in [12], the “Quenching of intrinsic tryptophan fluorescence by CMP (in words)” value was “lack of any quenching”. The “Highest pKa of the phosphate group” value in [13] is 6.3. Further, in data set [14], the “Rate of CMP generation from CMP-Sia hydrolysis” value is 0.0051 ± 0.00014 %/min and 0.0051 %/min. In addition, the “Quenching of intrinsic tryptophan fluorescence on CMP binding (in words)” value in data set [16] (wild-type mCST) is listed as “significantly quenched”.
Regarding `O=c1ccn([C@@H]2O[C@H](COP(=O)(O)O)[C@@H](O)[C@H]2O)c(=O)[nH]1` [UMP, Uridine 5′-monophosphate], the Kd in data set [1] amounted to 1620 ± 1120 µM. The “Substrate quality for UDP-GlcNAc transporter (in words)” value in [17] is “poor substrate”. The “Fold higher Ki for inhibiting CMP-Sia transport (versus CMP)” value in data set [3] (ref Chiaramonte et al., 2001) was 20 fold.
